Starred links: 1 amine or outer side, 2 acyl side, 3 side chain; linkers in the order of their positions; H or OH if unused. Non-standard residues stand in square brackets, D forms with d. Residues, ends and D or L forms follow the SMILES beside them. Groups on a side chain read outwards from the residue. *: point of attachment. C18 diacid = O=C(O)CCCCCCCCCCCCCCCCC(=O)*; αMePhe(2-F) = C[C@](N)(Cc1ccccc1F)C(=O)O; γGlu = O=C(O)[C@H](CCC(=O)[*:2])N[*:1]; αMe4Pal = C[C@](N)(Cc1ccncc1)C(=O)O; αMeY = C[C@](N)(Cc1ccc(O)cc1)C(=O)O; 4Pal = N[C@@H](Cc1ccncc1)C(=O)O; αMeL = CC(C)C[C@](C)(N)C(=O)O; αMeS = C[C@](N)(CO)C(=O)O; Orn = NCCC[C@H](N)C(=O)O; AEEA = NCCOCCOCC(=O)O; Aib = CC(C)(N)C(=O)O
How the values were obtained:
[1] = target: T1, hGIPR (Homo sapiens, UniProt P48546); assay: Functional cAMP activity in the presence of 1% HSA; assay type: cell-based; settings: read-out: cAMP Rel EC50, hGIPR
T1 sequence (P48546 22-466): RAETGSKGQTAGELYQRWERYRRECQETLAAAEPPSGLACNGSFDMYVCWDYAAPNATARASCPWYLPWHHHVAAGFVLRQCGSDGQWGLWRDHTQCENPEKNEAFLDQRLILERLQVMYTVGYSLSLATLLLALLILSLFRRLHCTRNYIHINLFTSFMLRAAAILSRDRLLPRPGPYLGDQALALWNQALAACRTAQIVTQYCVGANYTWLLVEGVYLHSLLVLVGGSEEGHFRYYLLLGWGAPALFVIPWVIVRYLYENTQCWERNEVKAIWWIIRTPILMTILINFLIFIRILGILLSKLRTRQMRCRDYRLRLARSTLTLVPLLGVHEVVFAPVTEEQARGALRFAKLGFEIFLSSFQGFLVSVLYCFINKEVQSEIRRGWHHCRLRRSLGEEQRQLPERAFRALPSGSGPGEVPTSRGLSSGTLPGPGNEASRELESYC

[2] = target: T2, hGLP-1R (Homo sapiens, UniProt P43220); assay: Functional cAMP activity in the presence of 1% HSA; assay type: cell-based; settings: read-out: cAMP Rel EC50, hGLP-1R
T2 sequence (P43220 24-463): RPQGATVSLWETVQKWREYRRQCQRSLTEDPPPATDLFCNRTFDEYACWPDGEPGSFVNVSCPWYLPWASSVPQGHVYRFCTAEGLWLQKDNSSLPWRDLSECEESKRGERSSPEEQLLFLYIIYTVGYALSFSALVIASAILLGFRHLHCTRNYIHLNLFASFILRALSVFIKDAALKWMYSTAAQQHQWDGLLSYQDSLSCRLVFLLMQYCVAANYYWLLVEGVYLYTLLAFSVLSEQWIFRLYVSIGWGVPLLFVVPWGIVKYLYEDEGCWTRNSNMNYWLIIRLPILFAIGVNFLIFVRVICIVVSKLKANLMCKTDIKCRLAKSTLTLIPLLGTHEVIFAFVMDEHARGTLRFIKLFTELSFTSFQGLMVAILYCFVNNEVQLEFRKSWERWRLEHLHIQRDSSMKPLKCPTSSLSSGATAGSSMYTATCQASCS

[3] = target: human GcgR (Homo sapiens, UniProt P47871); assay: Functional cAMP activity in the presence of 1% HSA; assay type: cell-based; settings: read-out: cAMP Rel EC50, hGcgR
Chain of human GcgR (P47871 26-477): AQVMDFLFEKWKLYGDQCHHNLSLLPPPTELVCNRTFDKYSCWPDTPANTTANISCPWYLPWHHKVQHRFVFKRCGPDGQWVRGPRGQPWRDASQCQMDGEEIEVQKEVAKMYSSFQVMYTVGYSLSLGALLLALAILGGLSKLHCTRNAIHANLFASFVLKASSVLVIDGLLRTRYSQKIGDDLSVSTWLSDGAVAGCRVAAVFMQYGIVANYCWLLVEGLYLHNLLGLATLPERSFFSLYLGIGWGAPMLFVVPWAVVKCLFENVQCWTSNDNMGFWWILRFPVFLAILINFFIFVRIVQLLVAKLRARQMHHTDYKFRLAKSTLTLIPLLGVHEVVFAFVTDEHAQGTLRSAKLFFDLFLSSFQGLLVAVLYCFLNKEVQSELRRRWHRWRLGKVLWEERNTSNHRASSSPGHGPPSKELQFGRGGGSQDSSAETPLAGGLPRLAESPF

[4] = target: T1, hGIPR; assay: Functional cAMP activation in the presence of 0.1% casein (no HSA); assay type: cell-based; settings: read-out: Relative cAMP EC50, hGIPR;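 on Relative cAMP EC50, hGIPR: intracellular cAMP rise after 30 min at 37 °C read by HTRF against a standard curve, scaled between buffer alone (0%) and top control ligand concentration (100%), four-parameter fit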;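 on Relative cAMP EC50, hGLP-1R: intracellular cAMP rise after 30 min at 37 °C read by HTRF, normalized between buffer only (0%) and maximal control ligand (100%), four-parameter variable-slope fit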;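 on Relative cAMP EC50, hGcgR: intracellular cAMP rise after 30 min at 37 °C, read by HTRF against a cAMP standard curve, scaled from buffer only (0%) to maximal control ligand response (100%)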
[5] = target: T2, hGLP-1R; assay: as above; assay type: cell-based; settings: read-out: Relative cAMP EC50, hGLP-1R
[6] = target: hGcgR (Homo sapiens, UniProt P47871); assay: as above; assay type: cell-based; settings: read-out: Relative cAMP EC50, hGcgR;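 further: intracellular cAMP rise after 30 min at 37 °C, read by HTRF against a cAMP standard curve, scaled from buffer only (0%) to maximal control ligand response (100%)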
Chain of hGcgR (P47871 26-477): as above

[7] = Pepsin stability assay in simulated gastric fluid; assay type: in vitro ADME; settings: pH 1.2, % Intact (SD)
Method: A pepsin stability assay is utilized to determine the relative stability of Example polypeptides in a simulated gastric proteolytic environment. […] The relative amount of intact peptide is quantified by mass spectrometry (MS). […] The examples were dissolved in 50 mM Tris buffer pH 8.0 at a concentration of 10 mg/mL as a stock solution. Pepsin A was reconstituted in SGF at 10 mg/mL. […] The example peptide and pepsin solutions were then incubated at 37° C. in a shaking incubator set at 100 rpm. Samples (25 μL) were withdrawn at different time intervals and quenched with 100 mM ammonium bicarbonate pH 9 (50 μL) to stop proteolytic activity. All samples were centrifuged, and the supernatants were analyzed by LC/MS to determine the remaining intact peptide.

[8] = Body weight in diet-induced obese C57BL/6 mice; assay type: in vivo; settings: 10 nmol/kg SC QD, 7 days, percent of starting weight, DIO mice, mean ± SEM n=5
Method: To investigate the effect of the polypeptides as described herein on weight loss, exemplary polypeptides are dosed to C57BL/6 diet-induced obese (DIO) mice. Specifically, DIO male C57BL/6 mice (Taconic, Germantown, NY) maintained on a calorie-rich diet are used in the following studies. Mice are individually housed in a temperature-controlled (24° C.) facility with 12-hour light/dark cycle (lights on 22:00) and free access to food (TD95217) and water. After a minimum of 2 weeks acclimation to the facility, the mice are randomized according to their body weight, so each experimental group of animals would have similar starting body weight. The body weights range from 41 to 50 g. All groups contain 5 mice. […] Treatments are administered by subcutaneous (SC) injection (10 mL/kg) to ad libitum fed DIO mice 30 to 90 minutes prior to the onset of the dark cycle either once daily (QD) or once every 3 days (Q3D) for 9-16 days. Body weight and food intake are measured daily throughout the study. Body weight is presented as percent of the starting weight. […] Data are presented as mean±SEM of 5 animals per group in Table 7 below. Statistical analysis is performed using repeated measures ANOVA, followed by Dunnett's method comparison test.

[9] = test system: Intestinal organoid from Göttingen minipig jejunum tissue, 2D monolayer; assay: Cell based in vitro permeability (Papp) assay; assay type: in vitro ADME
In short: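 2D monolayers derived from Göttingen minipig jejunal organoids on transwell inserts. Basal samples collected at 20 min in the presence of C10. Peptide in apical and basal compartments quantified by LC/MS to give Papp.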

Molecule	EC50 [1]	EC50 [2]	EC50 [3]	EC50 [4]	EC50 [5]	EC50 [6]	remaining at 0.25 h, 0.4 mg/mL [7]	remaining at 0.5 h, 0.4 mg/mL [7]	remaining at 1 h, 0.4 mg/mL [7]	Body weight (%) [8]	Relative Papp (Compared to internal standard) [9]
CC[C@H](C)[C@H](NC(=O)[C@H](CC(C)C)NC(=O)[C@](C)(Cc1ccc(O)cc1)NC(=O)[C@@H](CCC(=O)O)NC(=O)[C@@H](NC(=O)[C@H](Cc1ccccc1)NC(=O)[C@@H](NC(=O)C(C)(C)NC(=O)[C@H](CCC(N)=O)NC(=O)[C@H](C)NC(=O)[C@H](CCCCNC(=O)COCCOCCNC(=O)CC[C@H](NC(=O)CCCCCCCCCCCCCCCCC(=O)O)C(=O)O)NC(=O)[C@H](CCCN)NC(=O)[C@H](CC(=O)O)NC(=O)[C@H](CC(C)C)NC(=O)[C@](C)(CC(C)C)NC(=O)[C@@H](NC(=O)[C@](C)(CO)NC(=O)[C@H](Cc1ccncc1)NC(=O)[C@H](CC(=O)O)NC(=O)[C@H](CO)NC(=O)[C@@H](NC(=O)[C@](C)(Cc1ccccc1F)NC(=O)[C@@H](NC(=O)CNC(=O)[C@H](CCC(N)=O)NC(=O)C(C)(C)NC(=O)[C@@H](N)Cc1ccc(O)cc1)[C@@H](C)O)[C@@H](C)O)[C@@H](C)CC)[C@@H](C)O)[C@@H](C)CC)C(=O)N[C@@H](CCC(=O)O)C(=O)NCC(=O)NCC(=O)N1CCC[C@H]1C(=O)N[C@@H](CO)C(=O)N[C@@H](CO)C(=O)NCC(=O)N[C@@H](CCC(=O)O)C(=O)N1CCC[C@H]1C(=O)N1CCC[C@H]1C(=O)N1CCC[C@H]1C(=O)N[C@@H](CCC(=O)O)C(N)=O [Example 457] (H-Y[Aib]QGT[αMePhe(2-F)]TSD[4Pal][αMeS]I[αMeL]LD[Orn]K([AEEA-γGlu-C18 diacid])AQ[Aib]TFI[dE][αMeY]LIEGGPSSGEPPPE-NH2)	0.881 nM	11.7 nM	333 nM	0.00918 nM	0.226 nM	2.86 nM	78.8%	68.9%	60.1%	–	–
CC[C@H](C)[C@H](NC(=O)[C@H](CC(C)C)NC(=O)[C@](C)(Cc1ccc(O)cc1)NC(=O)[C@@H](CCC(=O)O)NC(=O)[C@@H](NC(=O)[C@H](Cc1ccccc1)NC(=O)[C@H](CCC(=O)O)NC(=O)[C@](C)(Cc1ccncc1)NC(=O)[C@H](CCC(N)=O)NC(=O)[C@H](C)NC(=O)[C@H](CCCCNC(=O)CC[C@H](NC(=O)CC[C@H](NC(=O)CCCCCCCCCCCCCCCCC(=O)O)C(=O)O)C(=O)O)NC(=O)[C@H](CCCN)NC(=O)[C@H](CC(=O)O)NC(=O)[C@H](CC(C)C)NC(=O)[C@](C)(CC(C)C)NC(=O)[C@@H](NC(=O)[C@](C)(CO)NC(=O)[C@H](Cc1ccncc1)NC(=O)[C@H](CC(=O)O)NC(=O)[C@H](CO)NC(=O)[C@@H](NC(=O)[C@](C)(Cc1ccccc1F)NC(=O)[C@@H](NC(=O)CNC(=O)[C@H](CCC(N)=O)NC(=O)C(C)(C)NC(=O)[C@@H](N)Cc1ccc(O)cc1)[C@@H](C)O)[C@@H](C)O)[C@@H](C)CC)[C@@H](C)CC)C(=O)N[C@@H](CCC(=O)O)C(=O)NCC(=O)NCC(=O)N1CCC[C@H]1C(=O)N[C@@H](CO)C(=O)N[C@@H](CO)C(=O)NCC(=O)N[C@@H](C)C(=O)N1CCC[C@H]1C(=O)N1CCC[C@H]1C(=O)N1CCC[C@H]1C(=O)N[C@@H](CO)C(=O)NCC(=O)N[C@@H](CO)C(N)=O [Example 700]	0.397 nM	20 nM	132 nM	0.00758 nM	0.245 nM	1.31 nM	89.9%	106%	98.9%	75.9 ± 3.77 %	0.29
H-Y[Aib]QGT[αMePhe(2-F)]TSD[4Pal]SI[αMeL]LD[Orn]K([AEEA-γGlu-C18 diacid])AQ[αMe4Pal][Orn]FIE[αMeY]LIEGGPSSGEPPPEGT-NH2 [Example 505]	2.1 nM	39 nM	92 nM	0.00707 nM	0.205 nM	0.445 nM	91.6%	78.9%	53.5%	–	–
H-Y[Aib]QGT[αMePhe(2-F)]TSD[4Pal]SI[αMeL]LD[Orn]K([AEEA-γGlu-C18 diacid])AQ[αMe4Pal][Orn]FI[dE]YLIEGGPSSGEPPPEGT-NH2 [Example 500]	3.9 nM	50.3 nM	494 nM	0.0375 nM	0.623 nM	4.04 nM	10.6%	1%	0%	–	–
H-Y[Aib]QGT[αMePhe(2-F)]TSD[4Pal][αMeS]I[αMeL]LD[Orn]K([AEEA-γGlu-C18 diacid])AQ[αMe4Pal]EFI[dE][αMeY]LIEGGPSSGAPPPSGTGE-NH2 [Example 714]	0.754 nM	33.2 nM	197 nM	0.00764 nM	0.289 nM	1.76 nM	99.2%	102%	96.9%	–	–
H-Y[Aib]QGT[αMePhe(2-F)]TSD[4Pal][αMeS]I[αMeL]LD[Orn]K([AEEA-γGlu-C18 diacid])AQ[αMe4Pal]EFI[dE][αMeY]LIEGGPSSGEPPPSGGGE-NH2 [Example 742]	0.857 nM	33.3 nM	203 nM	0.00688 nM	0.266 nM	1.25 nM	100%	113%	103%	–	–
H-Y[Aib]QGT[αMePhe(2-F)]TSD[4Pal][αMeS]I[αMeL]LD[Orn]K([AEEA-γGlu-C18 diacid])AQ[αMe4Pal]EFI[dE][αMeY]LIEGGPSSGEPPPSGTGE-NH2 [Example 711]	0.786 nM	35.2 nM	197 nM	0.00861 nM	0.355 nM	1.29 nM	95%	91.6%	91.9%	–	–
H-Y[Aib]QGT[αMePhe(2-F)]TSD[4Pal][αMeS]I[αMeL]LD[Orn]K([AEEA-γGlu-C18 diacid])AQ[αMe4Pal]EFI[dE][αMeY]LVEGGPSSGEPPPSGS-NH2 [Example 733]	1.15 nM	34.3 nM	207 nM	0.00894 nM	0.293 nM	1.6 nM	109%	107%	110%	–	–
H-Y[Aib]QGT[αMePhe(2-F)]TSD[4Pal][αMeS]I[αMeL]LD[Orn]K([γGlu-γGlu-C18 diacid])AQ[αMe4Pal]EFI[dE][αMeY]LIEGGPSSGAPPPSGTGE-NH2 [Example 718]	0.531 nM	23.2 nM	144 nM	0.00706 nM	0.214 nM	1.2 nM	103%	101%	–	–	–
H-Y[Aib]QGT[αMePhe(2-F)]TSD[4Pal][αMeS]I[αMeL]LD[Orn]K([γGlu-γGlu-C18 diacid])AQ[αMe4Pal]EFI[dE][αMeY]LVEGGPSSGAPPPSGS-NH2 [Example 696]	0.53 nM	19.1 nM	173 nM	0.00688 nM	0.233 nM	1.75 nM	102%	107%	–	–	0.77
